Results reported in paper PMC8699884, “High-Throughput Functional Analysis of CFTR and Other Apically Localized Proteins in iPSC-Derived Human Intestinal Organoids” (Cells, 2021).

Target: T1, SLC6A14 (Homo sapiens, UniProt Q9UN76)
T1 construct: endogenous transporter in opened human intestinal organoids
T1 sequence (Q9UN76 1-642): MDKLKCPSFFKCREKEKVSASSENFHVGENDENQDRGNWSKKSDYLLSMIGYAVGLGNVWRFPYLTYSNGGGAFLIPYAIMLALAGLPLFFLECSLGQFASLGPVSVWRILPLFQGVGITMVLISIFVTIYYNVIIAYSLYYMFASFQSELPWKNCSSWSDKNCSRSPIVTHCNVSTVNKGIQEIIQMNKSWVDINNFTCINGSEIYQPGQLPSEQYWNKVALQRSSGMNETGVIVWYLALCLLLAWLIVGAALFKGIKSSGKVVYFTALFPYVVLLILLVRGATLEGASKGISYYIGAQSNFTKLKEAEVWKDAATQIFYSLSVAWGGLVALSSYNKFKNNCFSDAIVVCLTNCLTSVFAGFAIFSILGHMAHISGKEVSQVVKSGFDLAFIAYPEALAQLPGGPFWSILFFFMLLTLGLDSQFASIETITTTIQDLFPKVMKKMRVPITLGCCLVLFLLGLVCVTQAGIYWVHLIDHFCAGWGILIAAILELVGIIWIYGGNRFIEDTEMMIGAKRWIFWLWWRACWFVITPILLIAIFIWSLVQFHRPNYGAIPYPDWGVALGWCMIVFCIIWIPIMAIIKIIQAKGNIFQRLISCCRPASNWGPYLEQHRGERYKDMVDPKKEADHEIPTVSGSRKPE
Experiment: FLIPR membrane potential (AAC) assay, α-MT-sensitive electrogenic uptake at […]
Format: cell-based

With `N=C(N)NCCC[C@H](N)C(=O)O` [L-Arg] the “FLIPR membrane potential (AAC) assay, α-MT-sensitive electrogenic uptake at 1 mM” value was “the addition of arginine (L-Arg) to the apical surface of these opened organoids evokes apical membrane depolarization”.
